# Measured values as given in patent US20050255493A1, “Molecular targeting of the IGF-1 receptor” (priority 2002, published 2005).
# Legend:
# [1] = test system: UC101 human ovarian cancer cells; assay: Tumorigenicity of UC101 ovarian cancer cells transfected with siRNA (xenografts); type: in vivo, female athymic (nu/nu mice); conditions: nu/nu mice
# Protocol: UC101 ovarian cancer cells were transfected with 200 nM siRNA, mixed with irradiated NIH-3T3 cells and inoculated into the flanks of female athymic (nu/nu mice).
# Tumorigenicity testing was conducted using UC101 human ovarian cancer cells transfected with 200 nM siRNA. After 48 hr the cells were inoculated into the flanks of female athymic (nu/nu mice), using 5×10^6 tumour cells mixed with 5×10^6 irradiated NIH-3T3 cells per mouse. Tumours were measured and volumes calculated as described (Macaulay et al., Oncogene 20: 2029-40, 2001). All procedures were performed in accordance with the Home Office Scientific Procedures Act 1986, and with the approval of the Animal Ethics Committee of Cancer Research UK.
# [2] = test system: IGF1R mRNA; assay: Oligonucleotide scanning array hybridisation with labelled transcript; type: binding, human; conditions: scanning array, peak 4 region (FIG. 11B)
# Protocol: Scanning arrays complementary to the region of the IGF1R mRNA from position 537-685 were prepared using the standard techniques described in Southern E. M. et al., Nucleic Acids Res., 1994, 22(8): 1368-1373; and Sohail, M. and Southern, E. M. “Using oligonucleotide scanning arrays to find effective antisense reagents”, Methods in Molecular Biology, vol. 170: DNA Arrays: Methods and Protocols, Ed J. B. Rampal, Humana Press Inc., Totowa, N.J.
# The scanning arrays comprise sets of oligonucleotides of various lengths. A series of oligonucleotides, complementary to the target mRNA, is made by sequential coupling of nucleotides to a solid surface. The DNA synthesis reagents are applied to a confined area on the surface of the solid support using a mask. The mask is shifted along the surface after each round of coupling, resulting in a series of oligonucleotides each complementary to a region of the target sequence.
# • 2. Remove 1 μL for quantitation (see below). • 3. Remove unincorporated label by Sephadex® G25 column chromatography (see Note 11). • 4. Save 1 μL of the purified transcript for quantitation (see below). • 5. Check the integrity of the transcript by denaturing polyacrylamide gel electrophoresis (10). • 6. Add 10 μL of the scintillation fluid to the samples saved in Steps 2 and 4. • 7. Mix by vortexing and count the samples in a scintillation counter for 1 min. • 8. Calculate the percent incorporation: [formula] • 9. Calculate the amount of RNA made: [formula] Hybridisation to Arrays Made on Polypropylene • 1. Place the array in the hybridisation tube, coiling it in a spiral. • 2. Dilute the radiolabelled transcript in an appropriate volume (10-20 mL depending upon the size of the array and the hybridisation tube) of hybridisation buffer. The mix should cover the array along the length of the tube. • 3. Place items 1 and 2 in the oven at desired temperature for 30 min. Also put approximately 100 mL of the hybridisation buffer in the oven: this is to be used to wash the array at the end of hybridisation. • 4. Pour the hybridisation mix into the tube containing the array and hybridise for 3-4 h. • 5. Remove the hybridisation mix. Briefly wash the array with the hybridisation buffer from Step 3, air dry, cover with cling film and expose to a storage phosphor screen for 16-20 h (see Note 12). • 6. Scan the screen on PhosphorImager or STORM and analyse the image using xvseq (see below). Hybridisation to Arrays Made on Glass • 1. Clean the non-array glass plate with acetone and ethanol to ensure it is grease-free and siliconise it by treatment with dimethyl dichlorosilane solution and place it in lidded box. Also place moist paper towel in the box. • 2. Dilute the radiolabelled transcript in an appropriate volume of the hybridisation buffer (for example, for an array of 250 mm×50 mm use 500-750 μL). • 3. Place items 1 and 2 in an incubator at desired temprature for 30 min. Also put approximately 100 mL of the hybridisation buffer in the oven: this is to be used to wash the array at the end of hybridisation. • 4. Using a micropipette, pipette the hybridisation mix in a line evenly along the length of the non-array glass plate, avoiding formation of air bubbles. • 5. Starting at one end, carefully place the scanning array (face down) on top of the hybridisation mix. The mix will spread out and form a thin film between the two plates. Incubate for 3-4 h. • 6. Separate the plates from each other and wash the array plate with hybridisation buffer to remove unbound mix. Drain the plate, air dry, cover with cling film and expose to a storage phosphor screen for 16-20 h. • 7. Scan the screen on PhosphorImager or STORM and analyse the image using xvseq (see below). Alternative Hybridisation Protocol for Glass or Polypropylene • 1. Assemble with clips the array plate (or polypropylene array pasted with PhotoMount™ on a glass plate) and the non-array plate, using rubber tubing as spacers on two sides. • 2. […]
# [3] = test system: MDA-MB-231 cells; assay: Clonogenic survival and post-irradiation survival (SF2) of transfected MDA-MB-231 cells; type: cell-based, human; conditions: MDA-MB-231, 100 nM
# Protocol: FIG. 7 A) MDA-MB-231 cells transfected with 100 nM RNA duplexes were serum-starved overnight and treated with 50 nM IGF-I for 30 min. […] Results represent mean±sem of colony counts in triplicate dishes. Similar results were obtained in two further clonogenic assays. • C) Clonogenic survival of transfected MDA-MB-231 cells that were unirradiated or irradiated at 2Gy. The fraction surviving 2Gy irradiation (SF2) is shown as mean±sem of three independent assays.
# The effect of transfection with 100 nM ASO4 or siRNA duplexes R4 and R5, equivalent to strongly and weakly hybridizing ASOs respectively, on colony forming efficiency and post-irradiation survival was also evaluated. […] This in turn illustrates the utility of hybridisation to the scanning ASO array in the selection of siRNA reagents, since relative hybridisation to the array is found to be predictive of activity in RNA interference and biological efficacy.
# [4] = test system: MDA-MB-231 cells; assay: Chemosensitisation of MDA-MB-231 cells to etoposide (clonogenic assay); type: cell-based, human; conditions: 200 nM
# Protocol: FIG. 14 illustrates chemosensitisation of MDA-MB-231 cells to etoposide. MDA-MB-231 cells were transfected with 200 nM siRNA R4 or scrambled control duplex, re-seeded the following day at 2000 cells/6 cm dish, and the following day treated overnight with etoposide at the indicated concentrations. Thereafter the drug was washed off, dishes were incubated for 1 week at 37° C., and visible colonies were stained and counted.
# [5] = UC101 cells transfected with 200 nM siRNA
substance,measurement,setting,value
"R4: RNAi duplex CAAUGAGUACAACUACCGCTT / TTGUUACUCAUGUUGAUGGCG, SEQ ID NO:30 (CAAUGAGUACAACUACCGCNN; second strand not cited, chemistry not fully specified)",Duration of tumour growth delay (remaining two animals),[1]; [5],~18 days
same,Time remaining tumour-free (two of 4 mice),[1]; [5],> 60 days
same,Animals in which tumour formation was abolished,"[1]; single transfection, 200 nM siRNA, UC101 cells",2/4
same,Difference in hybridization intensity between the 19mer ASOs equivalent to R4 and R5,[2],~6.5 fold
same,Survival after 2Gy irradiation (SF2),[3]; 2Gy,significant inhibition of survival after 2Gy irradiation
same,Clonogenic survival,[3]; unirradiated,inhibited survival
same,Sensitivity to etoposide by clonogenic assay,[4],significantly enhanced
